This passage reports inhibition results from ChEMBL document CHEMBL2007661, “Compounds: GSK PKIS; Assays: UNC Frye lab” (2012).

Molecules are shown by their SMILES. Values joined by “and” are separate entries in the source; they are usually repeats but may differ in a detail not shown here. Equal entries are not always repeated.

In experiment [1] the target is T1, Serine/threonine-protein kinase TBK1 (Homo sapiens) (UniProt Q9UHD2).
T1 sequence (whole entry): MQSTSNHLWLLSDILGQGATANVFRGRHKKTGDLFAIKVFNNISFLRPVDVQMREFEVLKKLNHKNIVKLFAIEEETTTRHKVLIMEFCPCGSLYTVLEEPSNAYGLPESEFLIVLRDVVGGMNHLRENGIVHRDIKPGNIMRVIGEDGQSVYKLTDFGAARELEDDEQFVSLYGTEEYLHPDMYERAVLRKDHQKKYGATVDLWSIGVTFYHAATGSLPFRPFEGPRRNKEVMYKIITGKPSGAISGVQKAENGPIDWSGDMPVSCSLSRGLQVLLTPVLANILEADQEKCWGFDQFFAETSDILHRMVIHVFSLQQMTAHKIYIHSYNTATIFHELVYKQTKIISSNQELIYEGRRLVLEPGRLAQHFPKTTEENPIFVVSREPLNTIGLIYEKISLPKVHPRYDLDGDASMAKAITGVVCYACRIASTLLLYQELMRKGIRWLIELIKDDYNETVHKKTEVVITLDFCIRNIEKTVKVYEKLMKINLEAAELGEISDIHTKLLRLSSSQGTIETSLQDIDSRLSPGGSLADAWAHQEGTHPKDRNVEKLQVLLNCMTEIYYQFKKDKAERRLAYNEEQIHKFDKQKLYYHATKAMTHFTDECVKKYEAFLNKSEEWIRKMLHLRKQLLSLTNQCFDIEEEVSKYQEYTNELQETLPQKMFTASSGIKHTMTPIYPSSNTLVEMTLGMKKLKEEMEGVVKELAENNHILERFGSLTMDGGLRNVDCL
As to conditions: at 1 µM.

Experiment [2] has as its target T2, Inhibitor of nuclear factor kappa-B kinase subunit epsilon (Homo sapiens) (UniProt Q14164).
T2 sequence (whole entry): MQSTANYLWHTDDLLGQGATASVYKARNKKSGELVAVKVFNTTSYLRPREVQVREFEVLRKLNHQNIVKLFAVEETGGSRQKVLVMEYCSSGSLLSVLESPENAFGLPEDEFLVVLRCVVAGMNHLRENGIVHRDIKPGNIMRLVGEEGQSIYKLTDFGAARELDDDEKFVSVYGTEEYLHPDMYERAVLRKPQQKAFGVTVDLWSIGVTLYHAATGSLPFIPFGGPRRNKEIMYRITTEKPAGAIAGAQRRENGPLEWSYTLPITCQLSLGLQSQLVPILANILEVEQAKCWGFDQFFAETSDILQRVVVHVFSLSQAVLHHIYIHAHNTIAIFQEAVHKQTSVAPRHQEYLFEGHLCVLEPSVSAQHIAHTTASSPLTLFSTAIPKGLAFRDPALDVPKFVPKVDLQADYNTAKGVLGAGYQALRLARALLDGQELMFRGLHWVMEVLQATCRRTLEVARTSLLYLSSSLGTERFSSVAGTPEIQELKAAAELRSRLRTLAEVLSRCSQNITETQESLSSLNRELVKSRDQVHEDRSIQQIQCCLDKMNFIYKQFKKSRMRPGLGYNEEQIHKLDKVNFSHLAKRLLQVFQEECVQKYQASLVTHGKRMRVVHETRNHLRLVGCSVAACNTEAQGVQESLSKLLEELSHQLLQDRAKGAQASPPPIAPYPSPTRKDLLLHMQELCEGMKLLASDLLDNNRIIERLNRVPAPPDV
As to conditions: at 1 µM.

The term inhibition denotes the relative decrease from the control value, in per cent. Take `COc1cccc(-n2ncc3c(N/N=C/c4ccc(S(C)(=O)=O)cc4)ncnc32)c1`: the inhibition was 20% and 30% in experiment [1]; 3% and 0% in experiment [2].
As for `CC1=C(C(=O)Nc2ccc3[nH]ncc3c2)C(c2ccc(F)cc2)N=C(c2ccc(C(F)(F)F)nc2)N1` (stereo unspecified), the inhibition in experiment [1] was 1% and -1%; in experiment [2], 3% and 0%.
`COc1cccc(-n2ncc3c(N/N=C/c4ccc(C)cc4)ncnc32)c1`: the inhibition is 1% and 2% in experiment [1]; 0% in experiment [2].
